Molecular target: GST-hRIPK1 (8-327) (Homo sapiens (Human), UniProt Q13546)
Assay: Fluorescent Polarization Binding (FP Binding) assay
Details: 10 nM GST-hRIPK1 (8-327), 5 nM fluorescent labeled ligand; read-out: FP IC50
Method: Fluorescent Polarization Binding (FP Binding) assay (Berger S. B. et al. […] Maki J. L. et al. […] Test Compounds were serially diluted in DMSO at 100 fold final concentrations in the assay (1% DMSO final). […] For negative control the enzyme addition was replaced by assay buffer only. After addition of 5 μL of fluorescent labeled ligand at twice the final concentrations in assay buffer, the plate was incubated at RT for 30 min.

Chain of GST-hRIPK1 (8-327) (Q13546 8-327): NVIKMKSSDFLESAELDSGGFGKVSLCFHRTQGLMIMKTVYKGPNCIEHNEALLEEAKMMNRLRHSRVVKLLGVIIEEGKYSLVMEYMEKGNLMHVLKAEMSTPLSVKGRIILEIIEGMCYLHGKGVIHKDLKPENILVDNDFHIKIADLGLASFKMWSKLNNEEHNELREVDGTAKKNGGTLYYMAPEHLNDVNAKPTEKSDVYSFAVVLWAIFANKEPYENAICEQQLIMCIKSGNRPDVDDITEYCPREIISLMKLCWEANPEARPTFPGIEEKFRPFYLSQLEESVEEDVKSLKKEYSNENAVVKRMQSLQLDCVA

Compound | IC50 [nM]
CN1C(=O)[C@H](NC(=O)c2nnc(Cc3ccccc3)[nH]2)C[C@H](F)c2ccccc21 (mixture of isomers) [Example 11B] | 1000 to 10000
CN1C(=O)[C@@H](NC(=O)c2cc(Cc3ccccc3)on2)CCc2sc(Cl)cc21 (stereo in doubt) [Example 1A, 5-Benzyl-N-(2-chloro-4-methyl-5-oxo-4H,5H,6H,7H,8H-thieno[3,2-b]azepin-6-yl)-1,2-oxazole-3-carboxamide] | 0.1 to 1000
CN1C(=O)[C@H](NC(=O)c2cc(Cc3ccccc3)on2)CCc2sc(Cl)cc21 (stereo in doubt) [Example 1B, 5-Benzyl-N-(2-chloro-4-methyl-5-oxo-4H,5H,6H,7H,8H-thieno[3,2-b]azepin-6-yl)-1,2-oxazole-3-carboxamide] | 0.1 to 1000
CN1C(=O)C(NC(=O)c2cc(Cc3ccccc3)on2)[C@@H]2C[C@@H]2c2ccccc21 (stereo in doubt) [Example 7B, 5-benzyl-N-((2S)-4-methyl-3-oxo-1,1a,2,3,4,8b-hexahydrobenzo[b]cyclopropa[d]azepin-2-yl)isoxazole-3-carboxamide] | > 10000
CN1C(=O)C(NC(=O)c2cc(Cc3ccccc3)on2)CC(F)c2ccccc21 (stereo not shown) [Example 2B, 5-benzyl-N-(5-fluoro-1-methyl-2-oxo-2,3,4,5-tetrahydro-1H-benzo[b]azepin-3-yl)isoxazole-3-carboxamide] | 0.1 to 1000
CN1C(=O)[C@@H](NC(=O)c2cc(Cc3ccccc3)on2)[C@H]2C[C@H]2c2ccccc21 [Example 7A, 5-benzyl-N-((2S)-4-methyl-3-oxo-1,1a,2,3,4,8b-hexahydrobenzo[b]cyclopropa[d]azepin-2-yl)isoxazole-3-carboxamide] | 0.1 to 1000
CN1C(=O)[C@@H](NC(=O)c2nnc(Cc3ccccc3)[nH]2)C[C@@H](F)c2ccccc21 [Example 11A] | 0.1 to 1000
CN1C(=O)[C@@H](NC(=O)c2cc(Cc3ccccc3)[nH]n2)CC2(CC2)c2ccccc21 [Example 59, 5-benzyl-N-[(3S)-1-methyl-2-oxo-1,2,3,4-tetrahydrospiro[l-benzazepine-5,1-cyclopropane]-3-yl]-1H-pyrazole-3-carboxamide] | 0.1 to 1000
CN1C(=O)[C@@H](NC(=O)c2cc(Cc3ccccc3)[nH]n2)[C@H]2C[C@H]2c2ccccc21 [Example 60A, 5-benzyl-N-((1aS,2S,8bR)-4-methyl-3-oxo-1,1a,2,3,4,8b-hexahydrobenzo[b]cyclopropa[d]azepin-2-yl)-1H-pyrazole-3-carboxamide] | 0.1 to 1000
CN1C(=O)[C@H](NC(=O)c2cc(Cc3ccccc3)[nH]n2)[C@@H]2C[C@@H]2c2ccccc21 [Example 60B, 5-benzyl-N-((1aR,2R,8bS)-4-methyl-3-oxo-1,1a,2,3,4,8b-hexahydrobenzo[b]cyclopropa[d]azepin-2-yl)-1H-pyrazole-3-carboxamide] | > 3000
CN1C(=O)[C@@H](NC(=O)c2coc(C3(c4ccccc4)CC3)n2)COc2ccccc21 [Example 61, (S)—N-(5-methyl-4-oxo-2,3,4,5-tetrahydrobenzo[b][1,4]oxazepin-3-yl)-2-(1-phenylcyclopropyl)oxazole-4-carboxamide] | 0.1 to 1000
O=C(N[C@H]1COc2cccnc2NC1=O)c1cc(C2(c3ccccc3)CC2)on1 [Example 62, (S)—N-(4-oxo-2,3,4,5-tetrahydropyrido[3,2-b][1,4]oxazepin-3-yl)-5-(1-phenylcyclopropyl)isoxazole-3-carboxamide] | 0.1 to 1000
CN1C(=O)[C@@H](NC(=O)c2ncc(C3(c4ccccc4)CC3)s2)COc2cccnc21 [Example 63, (S)—N-(5-methyl-4-oxo-2,3,4,5-tetrahydropyrido[3,2-b][1,4]oxazepin-3-yl)-5-(1-phenylcyclopropyl)thiazole-2-carboxamide] | 0.1 to 1000
CN1C(=O)[C@@H](NC(=O)c2nn(Cc3ccccc3)cc2F)COc2ccccc21 [Example 64, (S)-1-benzyl-4-fluoro-N-(5-methyl-4-oxo-2,3,4,5-tetrahydrobenzo[b][1,4]oxazepin-3-yl)-1H-pyrazole-3-carboxamide] | 0.1 to 1000
O=C(N[C@H]1CCc2ccccc2-n2cnnc21)c1nnc(Cc2ccccc2)[nH]1 [Example 69A, (S)-5-benzyl-N-(5,6-dihydro-4H-benzo[f][1,2,4]triazolo[4,3-a]azepin-4-yl)-4H-1,2,4-triazole-3-carboxamide] | 0.1 to 1000
O=C(N[C@@H]1CCc2ccccc2-n2cnnc21)c1nnc(Cc2ccccc2)[nH]1 [Example 69B, (R)-5-benzyl-N-(5,6-dihydro-4H-benzo[f][1,2,4]triazolo[4,3-a]azepin-4-yl)-4H-1,2,4-triazole-3-carboxamide] | > 3000
O=C(N[C@H]1COc2ccccc2-n2ccnc21)c1cc(Cc2ccccc2)on1 [Example 70A, (R)-5-benzyl-N-(4,5-dihydrobenzo[b]imidazo[1,2-d][1,4]oxazepin-4-yl)isoxazole-3-carboxamide] | 0.1 to 1000
O=C(N[C@@H]1COc2ccccc2-n2ccnc21)c1cc(Cc2ccccc2)on1 [Example 70B, (S)-5-benzyl-N-(4,5-dihydrobenzo[b]imidazo[1,2-d][1,4]oxazepin-4-yl)isoxazole-3-carboxamide] | > 3000
O=C(N[C@H]1CCc2ccccc2-n2cnnc21)c1cc(Cc2ccccc2)on1 [Example 71A, (S)-5-benzyl-N-(5,6-dihydro-4H-benzo[f][1,2,4]triazolo[4,3-a]azepin-4-yl)isoxazole-3-carboxamide] | 0.1 to 1000
O=C(N[C@@H]1CCc2ccccc2-n2cnnc21)c1cc(Cc2ccccc2)on1 [Example 71B, (R)-5-benzyl-N-(5,6-dihydro-4H-benzo[f][1,2,4]triazolo[4,3-a]azepin-4-yl)isoxazole-3-carboxamide] | > 3000
CN1C(=O)[C@@H](NC(=O)c2cc(C3(c4ccccc4)CC3)[nH]n2)COc2ccccc21 [Example 72, (S)—N-(5-methyl-4-oxo-2,3,4,5-tetrahydrobenzo[b][1,4]oxazepin-3-yl)-5-(1-phenylcyclopropyl)-1H-pyrazole-3-carboxamide] | 0.1 to 1000
CN1C(=O)[C@@H](NC(=O)c2cc(C3(c4ccccc4)CC3)[nH]n2)COc2cccnc21 [Example 73, (S)—N-(5-methyl-4-oxo-2,3,4,5-tetrahydropyrido[3,2-b][1,4]oxazepin-3-yl)-5-(1-phenylcyclopropyl)-1H-pyrazole-3-carboxamide] | 0.1 to 1000
CN1C(=O)[C@@H](NC(=O)c2nn(Cc3ccccn3)cc2F)COc2cccnc21 [Example 74, (S)-4-fluoro-N-(5-methyl-4-oxo-2,3,4,5-tetrahydropyrido[3,2-b][1,4]oxazepin-3-yl)-1-(pyridin-2-ylmethyl)-1H-pyrazole-3-carboxamide] | 0.1 to 1000
CN1C(=O)[C@@H](NC(=O)c2nn(Cc3ccccc3)cc2F)COc2cccnc21 [Example 76, (S)-1-benzyl-4-fluoro-N-(5-methyl-4-oxo-2,3,4,5-tetrahydropyrido[3,2-b][1,4]oxazepin-3-yl)-1H-pyrazole-3-carboxamide] | 0.1 to 1000
CN1C(=O)[C@@H](NC(=O)c2ncc(C3(c4ccccc4)CC3)[nH]2)COc2ccccc21 [Example 78, (S)—N-(5-methyl-4-oxo-2,3,4,5-tetrahydrobenzo[b][1,4]oxazepin-3-yl)-5-(1-phenylcyclopropyl)-1H-imidazole-2-carboxamide] | 0.1 to 1000
CN1C(=O)[C@@H](NC(=O)c2nc3cccc(-c4ccccc4F)c3s2)COc2ccccc21 [Example 79, (S)-7-(2-fluorophenyl)-N-(5-methyl-4-oxo-2,3,4,5-tetrahydrobenzo[b][1,4]oxazepin-3-yl)benzo[d]thiazole-2-carboxamide] | 0.1 to 1000

Continued, values first:

IC50 [nM] | Compound
0.1 to 1000 | CN1C(=O)[C@@H](NC(=O)c2nnc(Cc3ccccc3)[nH]2)C[C@H](F)c2ccccc21 [Example 12A]
0.1 to 1000 | CN1C(=O)[C@H](NC(=O)c2nnc(Cc3ccccc3)[nH]2)C[C@@H](F)c2ccccc21 [Example 12B]
0.1 to 1000 | CN1C(=O)[C@@H](NC(=O)c2nnc(Cc3ccccc3)[nH]2)[C@@H]2C[C@@H]2c2ccccc21 [Example 67A, 5-benzyl-N-((1aR,2S,8bS)-4-methyl-3-oxo-1,1a,2,3,4,8b-hexahydrobenzo[b]cyclopropa[d]azepin-2-yl)-4H-1,2,4-triazole-3-carboxamide]
> 3000 | CN1C(=O)[C@H](NC(=O)c2nnc(Cc3ccccc3)[nH]2)[C@H]2C[C@H]2c2ccccc21 [Example 67B, 5-benzyl-N-((1aS,2R,8bR)-4-methyl-3-oxo-1,1a,2,3,4,8b-hexahydrobenzo[b]cyclopropa[d]azepin-2-yl)-4H-1,2,4-triazole-3-carboxamide]
0.1 to 1000 | O=C(N[C@H]1COc2ccccc2-n2ccnc21)c1nnc(Cc2ccccc2)[nH]1 [Example 68A, (R)-5-benzyl-N-(4,5-dihydrobenzo[b]imidazo[1,2-d][1,4]oxazepin-4-yl)-4H-1,2,4-triazole-3-carboxamide]
> 3000 | O=C(N[C@@H]1COc2ccccc2-n2ccnc21)c1nnc(Cc2ccccc2)[nH]1 [Example 68B, (S)-5-benzyl-N-(4,5-dihydrobenzo[b]imidazo[1,2-d][1,4]oxazepin-4-yl)-4H-1,2,4-triazole-3-carboxamide]
> 3000 | CN1C(=O)[C@H](NC(=O)c2nnc(Cc3ccccc3)[nH]2)[C@@H]2C[C@@H]2c2cccnc21 [Example 75B, 5-benzyl-N-((1aR,2R,8bS)-4-methyl-3-oxo-1,1a,2,3,4,8b-hexahydrocyclopropa[d]pyrido[2,3-b]azepin-2-yl)-4H-1,2,4-triazole-3-carboxamide]
0.1 to 1000 | CN1C(=O)[C@@H](NC(=O)c2cc(Cc3ccccc3)[nH]n2)[C@H]2C[C@H]2c2cccnc21 [Example 80A, 5-benzyl-N-((1aS,2S,8bR)-4-methyl-3-oxo-1,1a,2,3,4,8b-hexahydrocyclopropa[d]pyrido[2,3-b]azepin-2-yl)-1H-pyrazole-3-carboxamide]

— US9815850B2, “Compounds, compositions and methods” (Denali Therapeutics Inc., priority 2016, dated 2017)
